19 compounds from patent publication EP3057951B1, “METHYLENE LINKED QUINOLINYL MODULATORS OF ROR-GAMMA-T” (Janssen Pharmaceutica NV, priority 2013, dated 2015) can be followed below.

“And” between values parts separate entries of the source, which are not always exact repeats. Equal values may be shown once. Where a name gives a salt, the structure may show the parent alone. Read-outs that look alike come from different tables or passages of the source.

The target of experiment [1] is T1, wild type human RORγt ligand binding domain (RORyt LBD) (Homo sapiens, UniProt P51449).
T1 construct: His-tag (N); TurboTEV protease cleavage site (ENLYFQG) (N); made in house; host or cells: E. coli (pHIS1, modified pET vector)
T1 sequence (P51449 258-518): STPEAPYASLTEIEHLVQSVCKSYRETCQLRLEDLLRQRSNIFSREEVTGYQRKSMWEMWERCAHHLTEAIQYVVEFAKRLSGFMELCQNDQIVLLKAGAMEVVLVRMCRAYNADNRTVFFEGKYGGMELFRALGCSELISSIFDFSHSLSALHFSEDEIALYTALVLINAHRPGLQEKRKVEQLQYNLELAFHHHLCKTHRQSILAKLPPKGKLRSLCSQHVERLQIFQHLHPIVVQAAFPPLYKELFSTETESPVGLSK
The experiment can be described thus: RORγt ThermoFluor assay (thermal shift, binding affinity KD).

Experiment [2] has as its target T2, wild type human RORγt LBD (Homo sapiens, UniProt P51449).
T2 construct: expressed in transfected cells; host or cells: HEK293T
T2 sequence (P51449 258-518): T1 sequence (P51449 258-518)
The experiment can be described thus: RORγt (LBD) Reporter Assay (GAL4-luciferase, HEK293T cells). Type of experiment: cell-based. As to conditions: for inhibition at 6 µM: HEK-293T, read-out: RORγt (LBD) Reporter Assay, % inhibition @ 6 µM, 6 µM compound concentration; for RORγt (LBD) Reporter Assay, % inhibition @ 6 µM: 6 µM compound concentration.

Setting [3] is: HEK293T cells, value after the comma with ∼, > or < could not be included in the average.

On to `CCCCc1nc2ccc(C(O)(c3cccnc3)c3cccc(F)c3)cc2c(Cl)c1Cc1ccc(-n2cccn2)cc1` (stereo not drawn) [Example 60, (3-(4-(1H-Pyrazol-1-yl)benzyl)-2-butyl-4-chloroquinolin-6-yl)(3-fluorophenyl)(pyridin-3-yl)methanol•TFA], for which the Kd in experiment [1] was 3100 nM. The IC50 in experiment [2] (setting [3]) was 620 nM and ~2000 nM. For the same compound, the inhibition at 6 µM in experiment [2] is 83%.

Consider `COc1nc2ccc(C(O)(c3ccc(C#N)cc3)c3cncn3C)cc2c(Cl)c1Cc1ccc(-n2cncn2)cc1` (single isomer, unassigned) [Example 14b, 4-((3-(4-(1H-1,2,4-Triazol-1-yl)benzyl)-4-chloro-2-methoxyquinolin-6-yl)(hydroxy)(1-methyl-1H-imidazol-5-yl)methyl)benzonitrile], for which, in experiment [1], the Kd is 140 nM. Besides, the IC50 in experiment [2] (setting [3]) was determined as 120 nM. Besides, in experiment [2], the inhibition at 6 µM is 105%.

Turning to `CON(C)c1nc2ccc(C(O)(c3ccc(C(F)(F)F)nc3)c3cncn3C)cc2c(N(C)OC)c1Cc1ccc(-n2cccn2)cc1` (stereo not drawn) [Example 129, {2,4-Bis[methoxy(methyl)amino]-3-[4-(1H-pyrazol-1-yl)benzyl]quinolin-6-yl}(1-methyl-1H-imidazol-5-yl)[6-(trifluoromethyl)pyridin-3-yl]methanol], the Kd in experiment [1] worked out at 1700 nM. Besides, in experiment [2] (HEK293T cells), inhibition was half-maximal at 1500 nM (IC50) and the inhibition at 6 µM stood at 110%.

Take `COc1nc2ccc(C(O)(c3cncn3C)C3CCOCC3)cc2c(Cl)c1Cc1ccc(-n2cccn2)cc1` (single isomer, unassigned) [Example 1b, (3-(4-(1H-Pyrazol-1-yl)benzyl)-4-chloro-2-methoxyquinolin-6-yl)(1-methyl-1H-imidazol-5-yl)(tetrahydro-2H-pyran-4-yl)methanol]: the Kd in experiment [1] came to 43 nM. The concentration for half-maximal inhibition (IC50) in experiment [2] (setting [3]) turned out to be 100 nM. For the same compound, the inhibition at 6 µM in experiment [2] was found to be 99%.

On to `Cc1nc2ccc(C(O)(c3ccc(C(F)(F)F)nc3)c3cncn3C)cc2c(Cl)c1Cc1ccc(C(F)(F)F)cc1` (stereo not drawn) [Example 26a, (4-Chloro-2-methyl-3-(4-(trifluoromethyl)benzyl)quinolin-6-yl)(1-methyl-1H-imidazol-5-yl)(6-(trifluoromethyl)pyridin-3-yl)methanol], for which the Kd in experiment [1] worked out at 3.1 nM. The compound also gave a half-maximal inhibitory concentration (IC50) in experiment [2] (setting [3]) of 33 nM. For the same compound, in experiment [2], the inhibition at 6 µM was 101%.

Regarding `COc1nc2ccc(C(O)(c3ccc(C#N)cc3)c3cncn3C)cc2c(C#N)c1Cc1ccc(-n2cncn2)cc1` (single isomer, unassigned) [Example 15c, 3-(4-(1H-1,2,4-Triazol-1-yl)benzyl)-6-((4-cyanophenyl)(hydroxy)(1-methyl-1H-imidazol-5-yl)methyl)-2-methoxyquinoline-4-carbonitrile], the Kd in experiment [1] came out at 17 nM. Moreover, the “RORγt (LBD) Reporter Assay, % inhibition @ 6 µM” value (“RORγt … % inhibition @ 6 µM” below) in experiment [2] is 97%. In experiment [2] (setting [3]), this compound yielded an IC50 of 28 nM.

Consider `CC(=O)N1CCC(C(O)(c2ccccc2)c2ccc3nc(C)c(Cc4ccc(C(F)(F)F)cc4)c(Cl)c3c2)CC1` (stereo not drawn) [Example 27a, 1-(4-((4-Chloro-2-methyl-3-(4-(trifluoromethyl)benzyl)quinolin-6-yl)(hydroxy)(phenyl)methyl)piperidin-1-yl)ethanone], for which the Kd in experiment [1] is 1.4 nM. Further, the midpoint of inhibition in experiment [2] (setting [3]), the IC50, lay at 4.4 nM. The inhibition at 6 µM in experiment [2] was 101%.

For `COc1nc2ccc(C(O)(c3ccc(C)nc3C)C3CN(C(C)=O)C3)cc2c(Cl)c1Cc1ccc(C(F)(F)F)cc1` (single isomer, unassigned) [Example 87c, 1-(3-((4-Chloro-2-methoxy-3-(4-(trifluoromethyl)benzyl)quinolin-6-yl)(2,6-dimethylpyridin-3-yl)(hydroxy)methyl)azetidin-1-yl)ethanone], the Kd in experiment [1] turned out to be 3 nM. For the same compound, the “RORγt … % inhibition @ 6 µM” value in experiment [2] stood at 97%. Besides, half-maximal inhibition in experiment [2] (setting [3]) (IC50) required 15 nM.

For the compound `CC(=O)N1CCC(C(O)(c2ccc(C(F)(F)F)nc2)c2cc(C)c3nc(C#N)c(Cc4ccc(-n5cccn5)cc4)c(C#N)c3c2)CC1` (single isomer, unassigned) [Example 79c, 3-(4-(1H-Pyrazol-1-yl)benzyl)-6-((1-acetylpiperidin-4-yl)(hydroxy)(6(trifluoromethyl)pyridin-3-yl)methyl)-8-methylquinoline-2,4-dicarbonitrile], the Kd in experiment [1] came to 45 nM. Moreover, in experiment [2], the “RORγt … % inhibition @ 6 µM” value came to 103%. In experiment [2] (setting [3]), this compound gave an IC50 of 230 nM.

Consider `COc1nc2ccc(C(O)(c3ccc(C)nc3C)c3cnnn3C)cc2c(C#N)c1Cc1ccc(C(F)(F)F)nc1` (single isomer, unassigned) [Example 41b, 6-((2,6-Dimethylpyridin-3-yl)(hydroxy)(1-methyl-1H-1,2,3-triazol-5-yl)methyl)-2-methoxy-3-((6-(trifluoromethyl)pyridin-3-yl)methyl)quinoline-4-carbonitrile], for which the Kd in experiment [1] was found to be 1200 nM. The same compound returned an IC50 in experiment [2] (setting [3]) of 1600 nM. Moreover, in experiment [2], the inhibition at 6 µM turned out to be 92%.

Regarding `Cc1cc(C(O)(c2ccnc(C(F)(F)F)c2)c2cncn2C)cc2c(C#N)c(Cc3ccc(-n4cccn4)cc3)c(C#N)nc12` (single isomer, unassigned) [Example 83c, 3-(4-(1H-Pyrazol-1-yl)benzyl)-6-(hydroxy(1-methyl-1H-imidazol-5-yl)(2-(trifluoromethyl)pyridin-4-yl)methyl)-8-methylquinoline-2,4-dicarbonitrile], the Kd in experiment [1] was 450 nM. Further, the “RORγt … % inhibition @ 6 µM” value in experiment [2] worked out at 100%. For the same compound, the IC50 in experiment [2] (setting [3]) stood at 1500 nM.

On to `Cn1cncc1C(O)(c1ccc(Cl)cc1)c1ccc2nc(N3CCC3)c(Cc3ccc(-n4cccn4)cc3)c(Cl)c2c1` (stereo not drawn) [Example 138a, {2-Azetidin-1-yl-4-chloro-3-[4-(1H-pyrazol-1-yl)benzyl]quinolin-6-yl}(4-chlorophenyl)(1-methyl-1H-imidazol-5-yl)methanol], for which the Kd in experiment [1] amounted to 130 nM. Besides, in experiment [2] (HEK293T cells), 130 nM corresponded to half-maximal inhibition (IC50) and the inhibition at 6 µM amounted to 98%.

For `COc1c(Cc2ccccc2)c(C(F)(F)F)nc2ccc(C(O)(c3ccc(C(F)(F)F)nc3)c3cncn3C)cc12` (single isomer, unassigned) [Example 106b, (3-Benzyl-4-methoxy-2-(trifluoromethyl)quinolin-6-yl)(1-methyl-1H-imidazol-5-yl)(6-(trifluoromethyl)pyridin-3-yl)methanol], the Kd in experiment [1] was 110 nM. Also, in experiment [2], the “RORγt … % inhibition @ 6 µM” value came out at 94%. Also, the IC50 in experiment [2] (setting [3]) amounted to 670 nM.

Regarding `Cc1cc(C(O)(c2ccc(C(F)(F)F)nc2)c2cncn2C)cc2c(Cl)c(Cc3ccc(-n4cccn4)cc3)c(N3CCC3)nc12` (single isomer, unassigned) [Example 137b, {2-Azetidin-1-yl-4-chloro-8-methyl-3-[4-(1H-pyrazol-1-yl)benzyl]quinolin-6-yl}(1-methyl-1H-imidazol-5-yl)[6-(trifluoromethyl)pyridin-3-yl]methanol], the Kd in experiment [1] was 41 nM. Also, in experiment [2] (HEK293T cells), the IC50 was 160 nM and the inhibition at 6 µM was determined as 93%.

For the compound `COc1nc2ccc(C(O)(c3ccc(F)cc3)C3CCN(C(C)=O)CC3)cc2c(Cl)c1Cc1ccc(F)cc1` (single isomer, unassigned) [Example 51c, 1-(4-((4-Chloro-3-(4-fluorobenzyl)-2-methoxyquinolin-6-yl)(4-fluorophenyl)(hydroxy)methyl)piperidin-1-yl)ethanone], the Kd in experiment [1] worked out at 200 nM. Also, the “RORγt … % inhibition @ 6 µM” value in experiment [2] stood at 4%. Besides, in experiment [2] (setting [3]), the IC50 is > 6000 nM.

Consider `COc1nc2ccc(C(O)(c3cnnn3C)c3cnc(C)n3C)cc2c(C#N)c1Cc1ccc(F)cc1` (single isomer, unassigned) [Example 66b, 6-((1,2-Dimethyl-1H-imidazol-5-yl)(hydroxy)(1-methyl-1H-1,2,3-triazol-5-yl)methyl)-3-(4-fluorobenzyl)-2-methoxyquinoline4-carbonitrile], for which the Kd in experiment [1] was determined as 1.1 nM. The compound also displayed an IC50 in experiment [2] (setting [3]) of 3.1 nM. The inhibition at 6 µM in experiment [2] is 82%.

For the compound `CCc1nc2ccc(C(O)(c3ccc(C)nc3C)c3cnnn3C)cc2c(Cl)c1Cc1ccc(C(F)(F)F)cc1` (single isomer, unassigned) [Example 23c, (4-Chloro-2-ethyl-3-(4-(trifluoromethyl)benzyl)quinolin-6-yl)(2,6-dimethylpyridin-3-yl)(1-methyl-1H-1,2,3-triazol-5-yl)methanol], in experiment [1], the Kd worked out at 0.03 nM. The “RORγt … % inhibition @ 6 µM” value in experiment [2] was 97%. For the same compound, the IC50 in experiment [2] (setting [3]) stood at 46 nM.

`COc1nc2ccc(C(O)(c3cnnn3C)C3CN(C(=O)OC(C)(C)C)C3)cc2c(Cl)c1Cc1ccc(C(F)(F)F)cc1` (stereo not drawn) [Example 123, tert-Butyl-3-((4-chloro-2-methoxy-3-(4-(trifluoromethyl)benzyl)quinolin-6-yl)(hydroxy)(1-methyl-1H-1,2,3-triazol-5-yl)methyl)azetidine-1-carboxylate]: the Kd in experiment [1] was determined as 5.2 nM. For the same compound, in experiment [2] (HEK293T cells), the IC50 came to 71 nM and the inhibition at 6 µM came out at 101%.

For `Cn1cncc1C(O)(c1ccc(Cl)cc1)c1ccc2nc(N3CCC3)c(Cc3ccc(-n4cccn4)cc3)c(Cl)c2c1` (single isomer, unassigned) [Example 138c, {2-Azetidin-1-yl-4-chloro-3-[4-(1H-pyrazol-1-yl)benzyl]quinolin-6-yl}(4-chlorophenyl)(1-methyl-1H-imidazol-5-yl)methanol], the Kd in experiment [1] came to 32 nM. Also, in experiment [2] (HEK293T cells), the “RORγt … % inhibition @ 6 µM” value is reported as 96% and the IC50 came to 75 nM.
